From ChEMBL document CHEMBL1201862, “PubChem BioAssay data set” (2004)
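96-well plates; 48 h exposure; 5 concentrations. Endpoints by linear interpolation between flanking doses. Not reached: highest tested concentration assigned. Here, GI50 denotes the concentration required for 50% inhibition of growth.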 The source made the active and inactive calls. Cut-off read from the data, not from the text of the source: active = GI50 up to about 1.1 µM and inactive = higher.

Legend:
Test in all cases: DTP human tumour cell line panel, 48 h
T47D = tested on: T47D
SF-539 = tested on: SF-539
SF-268 = tested on: SF-268
MCF7 = tested on: MCF7
MOLT-4 = tested on: MOLT-4
OVCAR-5 = tested on: OVCAR-5
SNB-75 = tested on: SNB-75
HT-29 = tested on: HT-29
NCI/ADR-RES = tested on: NCI/ADR-RES
MDA-MB-435 = tested on: MDA-MB-435
SW-620 = tested on: SW-620
HCT-15 = tested on: HCT-15
SK-OV-3 = tested on: SK-OV-3
M14 = tested on: M14
COLO 205 = tested on: COLO 205
Malme-3M = tested on: Malme-3M
CAKI-1 = tested on: CAKI-1
UO-31 = tested on: UO-31
HL-60 = tested on: HL-60
OVCAR-3 = tested on: OVCAR-3

| Structure (SMILES) | GI50 (T47D) | GI50 (SF-539) | GI50 (SF-268) | GI50 (MCF7) | GI50 (MOLT-4) | GI50 (OVCAR-5) | GI50 (SNB-75) | GI50 (HT-29) | GI50 (NCI/ADR-RES) | GI50 (MDA-MB-435) | GI50 (SW-620) | GI50 (HCT-15) [µM] | GI50 (SK-OV-3) | GI50 (M14) | GI50 (COLO 205) | GI50 (Malme-3M) | GI50 (CAKI-1) | GI50 (UO-31) | GI50 (HL-60) | GI50 (OVCAR-3) |
| --- | --- | --- | --- | --- | --- | --- | --- | --- | --- | --- | --- | --- | --- | --- | --- | --- | --- | --- | --- | --- |
| COC(=O)[C@](C)(Cc1ccccc1)NC(=O)[C@@H](C)N1[C@@H](c2ccccc2)COC1(C)C | 46.5 µM (inactive) | > 100 µM (inactive) | 85.7 µM (inactive) | 52 µM (inactive) | 34.4 µM (inactive) | > 100 µM (inactive) | 14.4 µM (inactive) | 46.9 µM (inactive) | 24.9 µM (inactive) | 48.8 µM (inactive) | 51.8 µM (inactive) | 37.7 | > 100 µM (inactive) | 63.7 µM (inactive) | 20.1 µM (inactive) | 44.6 µM (inactive) | 82.2 µM (inactive) | 30.6 µM (inactive) | 63.5 µM (inactive) | 37.6 µM (inactive) |
| O=N/N=c1\o[n-][n+](CCc2ccccc2)c1Cc1/c(=N/N=O)o[n-][n+]1CCc1ccccc1 | 27.9 µM (inactive) | 20.7 µM (inactive) | 32 µM (inactive) | 70 µM (inactive) | > 100 µM (inactive) | > 100 µM (inactive) | 19 µM (inactive) | 76 µM (inactive) | > 100 µM (inactive) | 39.7 µM (inactive) | 89.7 µM (inactive) | > 100 | 34.4 µM (inactive) | 89.5 µM (inactive) | > 100 µM (inactive) | 24.2 µM (inactive) | > 100 µM (inactive) | > 100 µM (inactive) | 30.8 µM (inactive) | 18.7 µM (inactive) |
| COc1cc(NCc2ccc3nc(N)nc(N)c3c2C)cc(OC)c1OC | 0.0658 µM (active) | 0.0269 µM (active) | 0.0258 µM (active) | 0.0308 µM (active) | 0.025 µM (active) | 1.85 µM (inactive) | 4.37 µM (inactive) | 0.0267 µM (active) | 2.74 µM (inactive) | 0.0365 µM (active) | 0.025 µM (active) | 0.025 | 2.84 µM (inactive) | 0.00024 µM (active) | 1.07 µM (active) | 1.55 µM (inactive) | 0.194 µM (active) | 1.05 µM (active) | 0.043 µM (active) | 0.288 µM (active) |
| NC(Cc1ccc(S(=O)(=O)O)cc1)C(=O)NC(Cc1ccc(S(=O)(=O)O)cc1)C(=O)NC(Cc1ccc(S(=O)(=O)O)cc1)C(=O)NC(Cc1ccc(S(=O)(=O)O)cc1)C(=O)O (stereo not given) | > 100 µM (inactive) | > 100 µM (inactive) | > 100 µM (inactive) | 46.1 µM (inactive) | > 100 µM (inactive) | > 100 µM (inactive) | > 100 µM (inactive) | > 100 µM (inactive) | > 100 µM (inactive) | > 100 µM (inactive) | > 100 µM (inactive) | > 100 | > 100 µM (inactive) | > 100 µM (inactive) | > 100 µM (inactive) | 68.5 µM (inactive) | > 100 µM (inactive) | > 100 µM (inactive) | > 10 µM (inactive) | > 100 µM (inactive) |
| Cc1cn(C2CC(O)C(CO)O2)c(=O)[nH]c1=O (stereo not given) | > 4080 µM (inactive) | 3670 µM (inactive) | 2280 µM (inactive) | 325 µM (inactive) | 386 µM (inactive) | 4060 µM (inactive) | 3630 µM (inactive) | 4430 µM (inactive) | 2260 µM (inactive) | 4940 µM (inactive) | 2130 µM (inactive) | 3370 | 2480 µM (inactive) | 1850 µM (inactive) | 3090 µM (inactive) | 2410 µM (inactive) | 1420 µM (inactive) | 3670 µM (inactive) | > 4760 µM (inactive) | 1490 µM (inactive) |
